This assay has as its target MAPK14 (human) (UniProt Q16539). Nature of the assay: Inhibition of MAPK14 Kinase Activity.

Sequence of MAPK14 (human) (Q16539 whole entry, looked up): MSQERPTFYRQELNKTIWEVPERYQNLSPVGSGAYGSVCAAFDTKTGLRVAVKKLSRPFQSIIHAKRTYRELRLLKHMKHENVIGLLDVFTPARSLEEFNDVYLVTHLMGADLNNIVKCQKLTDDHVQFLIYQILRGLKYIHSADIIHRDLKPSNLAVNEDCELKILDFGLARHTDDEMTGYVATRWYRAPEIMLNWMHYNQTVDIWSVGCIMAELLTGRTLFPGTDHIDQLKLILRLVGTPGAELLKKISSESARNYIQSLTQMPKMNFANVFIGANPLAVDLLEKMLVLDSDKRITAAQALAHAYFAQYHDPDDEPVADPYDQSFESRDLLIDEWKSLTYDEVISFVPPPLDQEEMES

On to `Cc1c(F)cc(C(=O)NC2CC2)cc1-c1ccc(C(=O)NCC2(O)CCCCC2)cc1`, for which the half-inhibitory concentration (IC50) (as a rule, the concentration that gives 50% inhibition) was less than 10 µM.

With `CSCCNC(=O)c1ccc(-c2cc(C(=O)NC3CC3)cc(F)c2C)cc1`, the concentration for half-maximal inhibition (IC50) was less than 10 µM. Compound `CCC(C)(C#N)NC(=O)c1ccc(-c2cc(C(=O)NC3CC3)cc(F)c2C)cc1` (stereo unspecified) gave a half-maximal inhibitory concentration (IC50) of less than 10 µM. As to `CC(=O)CC(C)(C)NC(=O)c1ccc(-c2cc(C(=O)NC3CC3)cc(F)c2C)cc1`, the concentration for half-maximal inhibition (IC50) was less than 10 µM. With `Cc1c(F)cc(C(=O)NC2CC2)cc1-c1ccc(C(=O)NC(CO)C2CC2)cc1` (stereo unspecified), the IC50 is less than 10 µM.

With `Cc1c(F)cc(C(=O)NC2CC2)cc1-c1ccc(C(=O)NC2(C#N)CCCCC2)cc1`, the half-maximal inhibitory concentration (IC50) is less than 10 µM. To `Cc1c(F)cc(C(=O)NC2CC2)cc1-c1ccc(C(=O)NC(C)(C)C(=O)C(C)C)cc1` belongs less than 10 µM; to `Cc1c(F)cc(C(=O)NC2CC2)cc1-c1ccc(C(=O)N2CCC2)cc1`, less than 10 µM; to `Cc1c(F)cc(C(=O)NC2CC2)cc1-c1ccc(C(=O)NCCS(C)(=O)=O)cc1`, less than 10 µM. To `Cc1c(F)cc(C(=O)NC2CC2)cc1-c1ccc(C(=O)NCCC#N)cc1` belongs less than 10 µM; to `Cc1c(F)cc(C(=O)NC2CC2)cc1-c1ccc(C(=O)N2CCCC2)cc1`, less than 10 µM.

The values are drawn from the Kinase Knowledgebase extract (Sharma et al. 2016).
